Starred links: 1 amine or outer side, 2 acyl side, 3 side chain; linkers in the order of their positions; H or OH if unused. Non-standard residues stand in square brackets, D forms with d. Residues, ends and D or L forms follow the SMILES beside them. Groups on a side chain read outwards from the residue. *: point of attachment. C20 diacid = O=C(O)CCCCCCCCCCCCCCCCCCC(=O)*; γGlu = O=C(O)[C@H](CCC(=O)[*:2])N[*:1]; αMeL = CC(C)C[C@](C)(N)C(=O)O; AEEA = NCCOCCOCC(=O)O; Aib = CC(C)(N)C(=O)O
Key:
Format in all cases: cell-based
hGLP-1R [1] = biological target: T1, hGLP-1R (Homo sapiens, UniProt P43220); assay: Functional cAMP activity in the presence of 1% HSA; settings: read-out: cAMP Rel EC50, hGLP-1R
hGcgR = hGcgR (Homo sapiens, UniProt P47871); assay: Functional cAMP activation in the presence of 0.1% casein (no HSA); settings: in the presence of 0.1% casein (no HSA); geometric mean; read-out: Relative cAMP EC50, hGcgR;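 also: intracellular cAMP rise after 30 min at 37 °C, read by HTRF against a cAMP standard curve, scaled from buffer only (0%) to maximal control ligand response (100%)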
human GcgR = human GcgR (Homo sapiens, UniProt P47871); assay: Functional cAMP activity in the presence of 1% HSA; settings: read-out: cAMP Rel EC50, hGcgR
hGIPR [2] = biological target: T2, hGIPR (Homo sapiens, UniProt P48546); assay: Functional cAMP activity in the presence of 1% HSA; settings: read-out: cAMP Rel EC50, hGIPR
T2 sequence (P48546 22-466): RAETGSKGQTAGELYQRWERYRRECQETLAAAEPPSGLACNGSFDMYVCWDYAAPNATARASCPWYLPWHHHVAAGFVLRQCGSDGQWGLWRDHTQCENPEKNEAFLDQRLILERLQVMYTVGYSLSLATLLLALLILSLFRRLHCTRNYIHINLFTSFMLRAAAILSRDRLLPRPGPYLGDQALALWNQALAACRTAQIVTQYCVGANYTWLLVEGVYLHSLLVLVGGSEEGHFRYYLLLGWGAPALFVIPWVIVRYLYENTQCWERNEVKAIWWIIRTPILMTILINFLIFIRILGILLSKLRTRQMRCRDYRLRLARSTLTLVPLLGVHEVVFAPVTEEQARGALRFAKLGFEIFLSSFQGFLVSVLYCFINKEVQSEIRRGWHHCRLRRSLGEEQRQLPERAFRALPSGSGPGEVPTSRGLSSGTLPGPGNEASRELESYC

hGLP-1R [3] = biological target: T1, hGLP-1R; assay: Functional cAMP activation in the presence of 0.1% casein (no HSA); settings: in the presence of 0.1% casein (no HSA); geometric mean; read-out: Relative cAMP EC50, hGLP-1R;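 as to Relative cAMP EC50, hGIPR: intracellular cAMP rise after 30 min at 37 °C read by HTRF against a standard curve, scaled between buffer alone (0%) and top control ligand concentration (100%), four-parameter fit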;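 as to Relative cAMP EC50, hGLP-1R: intracellular cAMP rise after 30 min at 37 °C read by HTRF, normalized between buffer only (0%) and maximal control ligand (100%), four-parameter variable-slope fit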
hGIPR [4] = biological target: T2, hGIPR; assay: as above; settings: in the presence of 0.1% casein (no HSA); geometric mean; read-out: Relative cAMP EC50, hGIPR

Chain of hGcgR (P47871 26-477): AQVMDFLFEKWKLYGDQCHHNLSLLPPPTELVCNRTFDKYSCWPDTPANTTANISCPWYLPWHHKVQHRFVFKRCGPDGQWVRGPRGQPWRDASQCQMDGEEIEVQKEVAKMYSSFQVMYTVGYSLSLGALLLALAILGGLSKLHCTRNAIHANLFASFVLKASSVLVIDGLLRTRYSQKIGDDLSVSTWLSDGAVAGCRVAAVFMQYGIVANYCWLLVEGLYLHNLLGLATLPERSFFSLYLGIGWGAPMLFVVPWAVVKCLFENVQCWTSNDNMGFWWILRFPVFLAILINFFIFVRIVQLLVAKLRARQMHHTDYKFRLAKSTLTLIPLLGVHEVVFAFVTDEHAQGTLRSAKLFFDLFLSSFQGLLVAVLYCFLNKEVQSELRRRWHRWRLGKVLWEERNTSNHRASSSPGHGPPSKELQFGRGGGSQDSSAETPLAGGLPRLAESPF
Chain of human GcgR (P47871 26-477): as above
T1 sequence (P43220 24-463): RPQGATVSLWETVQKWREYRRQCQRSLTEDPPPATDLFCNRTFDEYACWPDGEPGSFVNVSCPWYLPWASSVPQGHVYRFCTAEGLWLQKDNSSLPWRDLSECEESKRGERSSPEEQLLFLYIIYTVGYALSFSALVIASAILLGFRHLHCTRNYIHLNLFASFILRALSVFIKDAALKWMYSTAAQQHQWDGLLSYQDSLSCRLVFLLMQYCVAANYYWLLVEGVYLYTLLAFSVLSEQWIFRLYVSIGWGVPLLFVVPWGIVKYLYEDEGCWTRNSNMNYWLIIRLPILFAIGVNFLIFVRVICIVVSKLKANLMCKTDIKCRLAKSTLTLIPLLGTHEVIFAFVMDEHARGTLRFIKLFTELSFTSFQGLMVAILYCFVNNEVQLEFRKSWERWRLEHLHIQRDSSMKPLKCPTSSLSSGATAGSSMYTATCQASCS

Compound | EC50 (hGLP-1R [1]) [nM] | EC50 (hGcgR) [nM] | EC50 (human GcgR) [nM] | EC50 (hGIPR [2]) [nM] | EC50 (hGLP-1R [3]) [nM] | EC50 (hGIPR [4]) [nM]
CC[C@H](C)[C@H](NC(=O)[C@H](Cc1ccccc1)NC(=O)[C@H](C)NC(=O)C(C)(C)NC(=O)[C@H](CCC(N)=O)NC(=O)[C@H](C)NC(=O)[C@H](CCCCNC(=O)COCCOCCNC(=O)CC[C@H](NC(=O)CCCCCCCCCCCCCCCCC(=O)O)C(=O)O)NC(=O)[C@H](CCCCN)NC(=O)[C@H](CC(=O)O)NC(=O)[C@H](CC(C)C)NC(=O)[C@](C)(CC(C)C)NC(=O)[C@H](CCCN)NC(=O)[C@H](CO)NC(=O)[C@H](Cc1ccccc1)NC(=O)[C@H](CC(=O)O)NC(=O)[C@H](CO)NC(=O)[C@@H](NC(=O)[C@H](Cc1ccccc1)NC(=O)[C@@H](NC(=O)CNC(=O)[C@H](CCC(N)=O)NC(=O)C(C)(C)NC(=O)[C@@H](N)Cc1ccc(O)cc1)[C@@H](C)O)[C@@H](C)O)C(=O)N[C@@H](CCC(=O)O)C(=O)N[C@@H](Cc1ccc(O)cc1)C(=O)N[C@@H](CC(C)C)C(=O)N[C@@H](CC(C)C)C(=O)N[C@@H](CCC(=O)O)C(=O)N[C@H](C)C(=O)NCC(=O)N[C@@H](Cc1ccncc1)C(=O)N[C@@H](CO)C(=O)N[C@@H](CO)C(=O)NCC(=O)N[C@@H](C)C(=O)N1CCC[C@H]1C(=O)N1CCC[C@H]1C(=O)N1CCC[C@H]1C(=O)N[C@@H](CO)C(=O)NCC(=O)N[C@@H](CCC(=O)O)C(N)=O [Example 252] | 504 | 2.61 | 528 | 24.8 | 3.54 | 0.147
CC[C@H](C)[C@H](NC(=O)[C@H](Cc1ccccc1)NC(=O)[C@H](C)NC(=O)C(C)(C)NC(=O)[C@H](CCC(N)=O)NC(=O)[C@H](C)NC(=O)[C@H](CCCCNC(=O)COCCOCCNC(=O)CC[C@H](NC(=O)CCCCCCCCCCCCCCCCC(=O)O)C(=O)O)NC(=O)[C@H](CCCCN)NC(=O)[C@H](CC(=O)O)NC(=O)[C@H](CC(C)C)NC(=O)[C@](C)(CC(C)C)NC(=O)[C@H](CCCN)NC(=O)[C@H](CO)NC(=O)[C@H](Cc1ccccc1)NC(=O)[C@H](CC(=O)O)NC(=O)[C@H](CO)NC(=O)[C@@H](NC(=O)[C@H](Cc1ccccc1)NC(=O)[C@@H](NC(=O)CNC(=O)[C@H](CCC(N)=O)NC(=O)C(C)(C)NC(=O)[C@@H](N)Cc1ccc(O)cc1)[C@@H](C)O)[C@@H](C)O)C(=O)N[C@@H](CCC(=O)O)C(=O)N[C@@H](Cc1ccc(O)cc1)C(=O)N[C@@H](CC(C)C)C(=O)N[C@@H](CC(C)C)C(=O)N[C@@H](CCC(=O)O)C(=O)N[C@H](C)C(=O)NCC(=O)N1CCC[C@H]1C(=O)N[C@@H](CO)C(=O)N[C@@H](CO)C(=O)NCC(=O)N[C@@H](C)C(=O)N1CCC[C@H]1C(=O)N1CCC[C@H]1C(=O)N1CCC[C@H]1C(=O)N[C@@H](CO)C(=O)NCC(=O)N[C@@H](Cc1c[nH]cn1)C(N)=O [Example 259] | 220 | 2.55 | 317 | 18.4 | 1.47 | 0.114
CC[C@H](C)[C@H](NC(=O)[C@H](Cc1ccccc1)NC(=O)[C@H](C)NC(=O)C(C)(C)NC(=O)[C@H](CCC(N)=O)NC(=O)[C@H](C)NC(=O)[C@H](CCCCNC(=O)COCCOCCNC(=O)CC[C@H](NC(=O)CCCCCCCCCCCCCCCCC(=O)O)C(=O)O)NC(=O)[C@H](CCCCN)NC(=O)[C@H](CC(=O)O)NC(=O)[C@H](CC(C)C)NC(=O)[C@](C)(CC(C)C)NC(=O)[C@H](CCCCN)NC(=O)[C@H](CO)NC(=O)[C@H](Cc1ccncc1)NC(=O)[C@H](CC(=O)O)NC(=O)[C@H](CO)NC(=O)[C@@H](NC(=O)[C@H](Cc1ccccc1)NC(=O)[C@@H](NC(=O)CNC(=O)[C@H](CCC(N)=O)NC(=O)C(C)(C)NC(=O)[C@@H](N)Cc1ccc(O)cc1)[C@@H](C)O)[C@@H](C)O)C(=O)N[C@@H](CCC(=O)O)C(=O)N[C@@H](Cc1ccc(O)cc1)C(=O)N[C@@H](CC(C)C)C(=O)N[C@H](C(=O)N[C@@H](CCC(=O)O)C(=O)N[C@H](C)C(=O)NCC(=O)N[C@@H](CCC(=O)O)C(=O)N[C@@H](CO)C(=O)N[C@@H](CO)C(=O)NCC(=O)N[C@@H](C)C(=O)N1CCC[C@H]1C(=O)N1CCC[C@H]1C(=O)N1CCC[C@H]1C(=O)N[C@@H](CO)C(=O)NCC(=O)N[C@@H](CO)C(N)=O)[C@@H](C)CC [Example 283] | 233 | 9.73 | 1470 | 47.2 | 1.16 | 0.225
CC[C@H](C)[C@H](NC(=O)[C@H](Cc1ccccc1)NC(=O)[C@H](C)NC(=O)[C@H](CCCNC(=N)N)NC(=O)[C@H](CCC(N)=O)NC(=O)[C@H](C)NC(=O)[C@H](CCCCNC(=O)COCCOCCNC(=O)CC[C@H](NC(=O)CCCCCCCCCCCCCCCCCCC(=O)O)C(=O)O)NC(=O)[C@H](CCCCN)NC(=O)[C@H](CC(=O)O)NC(=O)[C@H](CC(C)C)NC(=O)[C@](C)(CC(C)C)NC(=O)[C@@H](NC(=O)[C@H](CO)NC(=O)[C@H](Cc1ccc(O)cc1)NC(=O)[C@H](CC(=O)O)NC(=O)[C@H](CO)NC(=O)[C@@H](NC(=O)[C@H](Cc1ccccc1)NC(=O)[C@@H](NC(=O)CNC(=O)[C@H](CCC(N)=O)NC(=O)C(C)(C)NC(=O)[C@@H](N)Cc1ccc(O)cc1)[C@@H](C)O)[C@@H](C)O)[C@@H](C)CC)C(=O)N[C@@H](CCC(=O)O)C(=O)N[C@@H](Cc1ccc(O)cc1)C(=O)N[C@@H](CC(C)C)C(=O)N[C@@H](CC(C)C)C(=O)N[C@@H](CCC(=O)O)C(=O)NCC(=O)NCC(=O)N1CCC[C@H]1C(=O)N[C@@H](CO)C(=O)N[C@@H](CO)C(=O)NCC(=O)N[C@@H](CCC(=O)O)C(=O)N1CCC[C@H]1C(=O)N1CCC[C@H]1C(=O)N1CCC[C@H]1C(=O)N[C@@H](CO)C(=O)NCC(N)=O [Example 313] (H-Y[Aib]QGTFTSDYSI[αMeL]LDKK([AEEA-γGlu-C20 diacid])AQRAFIEYLLEGGPSSGEPPPSG-NH2) | 135 | 4.11 | 3290 | 86.4 | 0.304 | 0.49
CC[C@H](C)[C@H](NC(=O)[C@H](Cc1ccccc1)NC(=O)C(C)(C)NC(=O)C(C)(C)NC(=O)[C@H](CCC(N)=O)NC(=O)[C@H](C)NC(=O)[C@H](CCCCNC(=O)COCCOCCNC(=O)CC[C@H](NC(=O)CCCCCCCCCCCCCCCCCCC(=O)O)C(=O)O)NC(=O)[C@H](CCCN)NC(=O)[C@H](CC(=O)O)NC(=O)[C@H](CC(C)C)NC(=O)[C@](C)(CC(C)C)NC(=O)[C@@H](NC(=O)[C@H](CO)NC(=O)[C@H](Cc1ccncc1)NC(=O)[C@H](CC(=O)O)NC(=O)[C@H](CO)NC(=O)[C@@H](NC(=O)[C@](C)(Cc1ccccc1F)NC(=O)[C@@H](NC(=O)CNC(=O)[C@H](CCC(N)=O)NC(=O)C(C)(C)NC(=O)[C@@H](N)Cc1ccc(O)cc1)[C@@H](C)O)[C@@H](C)O)[C@@H](C)CC)C(=O)N[C@H](CCC(=O)O)C(=O)N[C@@](C)(Cc1ccc(O)cc1)C(=O)N[C@@H](CC(C)C)C(=O)N[C@@H](CC(C)C)C(=O)N[C@@H](CCC(=O)O)C(=O)NCC(=O)NCC(=O)N1CCC[C@H]1C(=O)N[C@@H](CO)C(=O)N[C@@H](CO)C(=O)NCC(=O)N[C@@H](CCC(=O)O)C(=O)N1CCC[C@H]1C(=O)N1CCC[C@H]1C(=O)N1CCC[C@H]1C(=O)N[C@@H](CO)C(N)=O [Example 366] | 85.9 | 4.51 | 1830 | 4.27 | 0.744 | 0.024
CC[C@H](C)[C@H](NC(=O)[C@H](Cc1ccccc1)NC(=O)[C@H](CCCN)NC(=O)C(C)(C)NC(=O)[C@H](CCC(N)=O)NC(=O)[C@H](C)NC(=O)[C@H](CCCCNC(=O)COCCOCCNC(=O)CC[C@H](NC(=O)CCCCCCCCCCCCCCCCC(=O)O)C(=O)O)NC(=O)[C@H](CCCN)NC(=O)[C@H](CC(=O)O)NC(=O)[C@H](CC(C)C)NC(=O)[C@](C)(CC(C)C)NC(=O)[C@@H](NC(=O)[C@H](CO)NC(=O)[C@H](Cc1ccncc1)NC(=O)[C@H](CC(=O)O)NC(=O)[C@H](CO)NC(=O)[C@@H](NC(=O)[C@](C)(Cc1ccccc1F)NC(=O)[C@@H](NC(=O)CNC(=O)[C@H](CCC(N)=O)NC(=O)C(C)(C)NC(=O)[C@@H](N)Cc1ccc(O)cc1)[C@@H](C)O)[C@@H](C)O)[C@@H](C)CC)C(=O)N[C@H](CCC(=O)O)C(=O)N[C@@](C)(Cc1ccc(O)cc1)C(=O)N[C@@H](CC(C)C)C(=O)N[C@@H](CC(C)C)C(=O)N[C@@H](CCC(=O)O)C(=O)NCC(=O)NCC(=O)N1CCC[C@H]1C(=O)N[C@@H](CO)C(=O)N[C@@H](CO)C(=O)NCC(=O)N[C@@H](CCC(=O)O)C(=O)N1CCC[C@H]1C(=O)N1CCC[C@H]1C(=O)N1CCC[C@H]1C(=O)N[C@@H](CO)C(N)=O [Example 367] | 30.1 | 7.95 | 668 | 4.89 | 0.421 | 0.0215
